Results on one compound are retold here after publication PMC9458058, “Synthesis of N-Substituted Iminosugar C-Glycosides and Evaluation as Promising α-Glucosidase Inhibitors” (Molecules, 2022).

One assay addresses α-glucosidase (Saccharomyces cerevisiae, UniProt P53341). The assay can be described thus: Enzyme kinetics experiment (ultrafiltration recovery, Lineweaver-Burk plots). The class given is biochemical. From the text:
To determine which mechanism 6e belonged to, we removed the unreacted inhibitor from the enzyme solution by ultrafiltration, and examined whether the activity would be recovered or not by the method described in the literatures. When an enzyme solution containing 6e was subjected to ultrafiltration and then redissolved with the same concentration, the α-glucosidase activity was substantially recovered (Figure 5A).
Further analysis of the compound 6e, in order to reveal the type of enzyme inhibition on α-glucosidase, was done with different substrate concentration.
Enzyme kinetics experiment: The principle of the experimental method is the same as that of the above method, in which the micro-membrane centrifuge tube with a pore diameter of 3K is used for small molecule centrifugal separation. In the enzyme kinetics experiment, the concentration of enzyme was set at a fixed concentration, and five concentration gradients were designed for the solution of substrate maltose. The linear relationship was plotted using the obtained results combined with the Michaelis-Menten equation.

For a further assay, the target named is α-glucosidase from yeast (Saccharomyces cerevisiae, UniProt P53341). Put plainly: biochemical. It counts as biochemical. How it is done: The inhibitory potency of the synthesized N-substituted iminosugar C-glycosides 5 was assessed by testing the compounds in assays for the α-glucosidase from yeast. […] Alternatively, N atom was modified with various benzaldehydes, giving a library of iminosugar C-glycosides containing phenyl.
The extracts of each sample were dissolved in distilled water to prepare a certain concentration. 150 µL of the sample solution was mixed with 150 µL of maltose solution (prepared with 0.2 M, pH = 6.8 phosphate buffer) at a certain concentration, and cultured at 37 °C for 10 min. Then 150 µL of the enzyme solution at a certain concentration was added and mixed. The reaction was carried out at 37 °C for 60 min. The reaction was terminated in a boiling water bath for 10 min and centrifuged at 3000 r/min for 10 min. The supernatant was taken to determine the content of glucose with Glu kit. […] Enzyme activity inhibition rate (%) = (negative-sample)/(negative-blank) × 100%.

Sequence of α-glucosidase from yeast (P53341 whole entry): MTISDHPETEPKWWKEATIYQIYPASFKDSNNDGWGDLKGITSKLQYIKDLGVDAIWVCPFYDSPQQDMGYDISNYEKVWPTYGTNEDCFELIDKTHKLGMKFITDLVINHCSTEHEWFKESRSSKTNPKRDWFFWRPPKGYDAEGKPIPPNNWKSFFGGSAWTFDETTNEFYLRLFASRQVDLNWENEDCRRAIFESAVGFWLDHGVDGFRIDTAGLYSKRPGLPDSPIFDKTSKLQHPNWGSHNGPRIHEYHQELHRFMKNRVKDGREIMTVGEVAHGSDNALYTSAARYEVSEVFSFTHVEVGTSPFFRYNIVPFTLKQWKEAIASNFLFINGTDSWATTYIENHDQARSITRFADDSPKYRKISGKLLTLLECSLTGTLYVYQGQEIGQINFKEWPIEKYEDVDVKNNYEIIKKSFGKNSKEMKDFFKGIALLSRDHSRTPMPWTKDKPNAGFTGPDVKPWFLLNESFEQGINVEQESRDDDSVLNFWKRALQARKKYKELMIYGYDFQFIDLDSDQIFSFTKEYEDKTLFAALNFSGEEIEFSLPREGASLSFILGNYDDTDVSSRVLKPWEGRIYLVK
Sequence of α-glucosidase (P53341 whole entry): as above

Regarding `CC(=O)C[C@@H]1[C@H](O)[C@H](O)[C@H](O)CN1Cc1c(Cl)cc(O)cc1Cl` [Compound 6e, (1R, 2S, 3R, 4R)-1-Acetylmethyl-2,3,4-trihydroxyl-N-2,6-dichloro-4-hydroxylbenzylpiperidine], at α-glucosidase (Lineweaver-Burk plots), the “type of enzyme inhibition” value is listed as “uncompetitive inhibitor”. In addition, at α-glucosidase (Lineweaver-Burk plots, different substrate concentration), the Ki (usually the dissociation constant of the complex between target and ligand, obtained from inhibition or displacement) was found to be 8.6 µM. Besides, the reversibility of inhibition result on α-glucosidase (enzyme activity after removal of inhibitor by ultrafiltration) is “reversible inhibitor”. Further, on α-glucosidase from yeast, the “inhibition compared with positive control Acarbose, in words” value is reported as “stronger inhibitory potency than positive control Acarbose” and the “inhibitory potency relative to positive control Acarbose” value turned out to be 2 fold. The IC50 (usually the midpoint of a concentration-inhibition curve) on α-glucosidase from yeast (read-out: IC50 against α-glucosidase from yeast) amounted to 0.9 µM.
